In experiment [1] the target is extracellular α-amylase from Pyrococcus furiosus (partially purified) (Pyrococcus furiosus, UniProt Q8U3I9). The following applies: EDTA concentration not given. Here is the method: In order to conduct physiochemical investigations the extracellular amylase was partially purified by gelfiltration. All experiments were performed in the absence of metal ions and under aerobic conditions.

Experiment [2] deals with α-amylase from Pyrococcus woesei (partially purified) (Pyrococcus woesei, UniProt Q7LYT7). Briefly: biochemical. The following applies: 40 min, pH 5.5, read-out: enzyme activity measured in percent. How it is done: The influence of metal cations and EDTA on the activity of α-amylase from P. woesei was performed with enzyme which was partially purified by gelfiltration on a Supsrose 12 column (Pharmacia, Sweden), see Table 2. The fractions containing α-amylase were collected and concentrated 4-fold. 25 μl of enzyme (400 U/l) were added to 100 μl of sodium acetate buffer (50 mM, pH 5.5) containing 1% (w/v) starch. Metal cations, which were dissolved in sodium acetate buffer (100 mM, pH 5.5), were added in various concentrations. Incubation was conducted in a glycerin bath (100° C.) for 40 min. The reducing sugars were finally detected as described by Bergmeyer and Grassi (supra). The values represent the enzyme activity measured in percent.
Chain of α-amylase from Pyrococcus woesei (partially purified) (Q7LYT7 26-460): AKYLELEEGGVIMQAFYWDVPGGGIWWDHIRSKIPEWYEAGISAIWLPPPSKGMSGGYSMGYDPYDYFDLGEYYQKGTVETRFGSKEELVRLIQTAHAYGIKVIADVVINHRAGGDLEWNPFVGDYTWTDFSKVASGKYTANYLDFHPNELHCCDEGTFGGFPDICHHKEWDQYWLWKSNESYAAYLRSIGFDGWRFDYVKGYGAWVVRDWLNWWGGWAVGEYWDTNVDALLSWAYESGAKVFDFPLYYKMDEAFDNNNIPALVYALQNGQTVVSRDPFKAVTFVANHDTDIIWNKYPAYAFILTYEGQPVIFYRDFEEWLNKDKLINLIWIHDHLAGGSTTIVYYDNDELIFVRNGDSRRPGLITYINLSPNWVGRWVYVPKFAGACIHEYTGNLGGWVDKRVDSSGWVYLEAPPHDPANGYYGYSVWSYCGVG

The values that follow come from patent US5370997A, “Hyperthermostable alpha-amylase” (Novo Nordisk A/S, priority 1989, dated 1994).

Chain of extracellular α-amylase from Pyrococcus furiosus (partially purified) (Q8U3I9 39-473): as the sequence (Q7LYT7 26-460) above

As for `O=C(O)CN(CCN(CC(=O)O)CC(=O)O)CC(=O)O` [EDTA], the “influence on amylase activity” value in experiment [1] is reported as “did not have any influence”. In addition, in experiment [2], the remaining activity at 1000 µM stood at 95%, the remaining activity at 2000 µM turned out to be 85% and the remaining activity at 5000 µM came out at 60%.
